Entries after “also recorded” stand apart in the source; their conditions may differ.
How the values were obtained:
mESC lines E14 and R1 = test: Whole gene expression profiling (microarray) of mESC lines E14 and R1; type: cell-based, mouse; details: APH plus inhibitor
Description: The quality of total RNA was first assessed using an Agilent Bioanalyzer 2100 (Agilent Technologies, Palo Alto, Calif.). Biotin-labeled cDNA targets were synthesized starting from 150 ng of total RNA. Double stranded cDNA synthesis and related cRNA was performed with GeneChip® WT Plus Kit (Affymetrix, Santa Clara, Calif.). With the same kit was synthesized the sense strand cDNA before to be fragmented and labeled. […] Each eukaryotic GeneChip® probe array contains probe sets for several B. subtilis genes that are absent in the samples analyzed (lys, phe, thr, and dap). This Poly-A RNA Control Kit contains in vitro synthesized, polyadenylated transcripts for these B. subtilis genes that are pre-mixed at staggered concentrations to allow GeneChip® probe array users to assess the overall success of the assay.
Hybridization was performed using the GeneAtlas™ Hybridization, Wash and Stain Kit. […] Targets were diluted in hybridization buffer at a concentration of 0.05 μg/ul, denatured at 99° C. for 5 minutes, incubated at 45° C. for 5 minutes and centrifuged at 5,000 rpm for 1 minute. The Array Strip is then moved to a hybridization tray, which contains the hybridization cocktails. A single Gene 2.1 PEG Array Strip is hybridized with four different biotin-labeled targets. Hybridizations were performed for 20 hours at 48° C. in the GeneAtlas™ Hybridization Station. The Array Strips were washed and stained in the GeneAtlas™ Personal Fluidics Station. At the end of this procedure the array strips were placed into the imaging tray, which contains the Array Holding buffer.
The array strips were imaged using the GeneAtlas™ Imaging Station. Affymetrix GeneAtlas™ Command Console software was used to acquire the Array Strip images and […].
The CAMERA gene set enrichment p-values were calculated using the limma package and the camera function 30.
In the GSVA based enrichment analysis, we used the MsigDB gene sets, and transformed the individual gene expression values into gene set expression values with the GSVA package 32. We calculated the gene set differential expression as in the gene level differential expression analysis, only skipping the RMA normalization step.

Zscan4 = details: previous work; cited from earlier work
pZscan4-Emerald ESCs = test: FACS analysis of Zscan4-Emerald ESCs (Emerald-GFP positive cells); type: cell-based, mouse
Description: (§1) All treatments including APH, HU, UV, ATRi, ATMi and Chk1i were added in to fresh ESC medium and the cells were kept in 37° C. and 3% 02 tension for overnight (16-17 hrs) unless mentioned in each particular result section. APH was used at various concentrations ranging from 0.3 uM to 6 uM that is mentioned in each experiment in order to induce mild to acute replication stress response. Similarly, HU was used at 0.1 mM-3 mM. ATMi (KU-55933) and ATRi (VE 822) were used at the concentration of 10 uM and 1 uM respectively. Moreover, Chk1i (UCN-01) at the concentration of 100 nM was used. UV radiation was performed at the dosage ranging from 2 to 10 J/m2. For induction of ETAA1-AAD expression, Dox was used at the concentration of 1 μg/mL for 48 hrs.
ESCs were fixed and permeabilized using Cytoperm/Cytofix kit (BD Biosciences), and subsequently stained for one hour at room temperature with Alexa Fluor® 647 anti-H2AX-Phosphorylated (Ser139) antibody (Biolegend) or P-CHK1-PE conjugated antibody (cell signaling 12268). Cells were washed and acquired on a FACS Calibur instrument or Attune NxT (Thermo Fisher Scientific). For Emerald-GFP acquisition, cells were trypsinized, collected and subsequently acquired without fixation. Cell cycle profiles were acquired after incubation with DAPI (4′,6-diamidino-2-phenylindole) overnight. For Caspase3 FACS analysis after fixation and permeabilization, Cleaved Caspase3 antibody were used for one hr at RT followed by washes and one hr incubation in donkey anti rabbit secondary antibody. […]

[1] = tested on: 2C-like genes (Zscan4, MuERV-L/MERVL, Dux) in ESCs (E14, R1); test: qPCR for 2C-like specific genes in ESCs; type: cell-based, mouse; details: ESC lines E14 and R1; time and dosage-dependent
Description: as §1
RNA was extracted using RNeasy mini kit (QIAGEN), quantified by NanoDrop spectrophotometer and cDNA was prepared from 2 μg total DNA-depleted RNA using SuperScript™ III reverse transcriptase kit (Invitrogen cat #18080-093) following manufacturer's instructions. qPCR assay performed based on standard protocol using 10× SsoFast™ EvaGreen® Supermix or later 1× LightCycler 480 SYBR Green I Master (Roche, 04707516001), 0.5 μM primer mix and 5 ng of cDNA. GAPDH was used as internal control to normalise the qPCR data following ΔΔCt method, 10 μM primer mix and a total amount of cDNA corresponding to 5 ng of starting RNA for each reaction.

Cn1c(=O)c2c(ncn2C)n(C)c1=O [Caffeine]
two placenta-related gene categories upon ATR inhibition (mESC lines E14 and R1): robustly suppressed

COC(=O)Nc1nc2ccc(C(=O)c3cccs3)cc2[nH]1 [nocodazole]
Zscan4 expression upon G2/M arrest (Zscan4): not sufficient to trigger Zscan4 expression

O=c1cc(-c2cccc3c2Sc2ccccc2S3)oc(N2CCOCC2)c1 [KU-55933]
elevated expression of 2C-like specific genes (Zscan4, MERVL) upon APH and HU treatment (pZscan4-Emerald ESCs; inhibitor added under replication stress, flow cytometry and immunoblot, listed as ATM inhibitor): could not alter
number of Zscan4-Emerald positive cells (pZscan4-Emerald ESCs; normal culture condition, ATRi 1 uM, ATMi 10 uM): did not change; also recorded: did not significantly reduce

NC(=O)NO [HU, hydroxyurea]
number of Emerald-GFP positive (Em+) ESCs (pZscan4-Emerald ESCs; RS inducing agents, dose-dependent, qPCR and FACS): significant increase
expression of Zscan4 and MuERV-L (QPCR and FACS) [1]: significantly upregulated

— patent US20200131473A1, “METHOD OF GENERATING 2 CELL-LIKE STEM CELLS” (IFOM FONDAZIONE ISTITUTO FIRC DI ONCOLOGIA MOLECOLARE, priority 2017, published 2020)
